The subject of test [1] is fractured femora. As to the kind of experiment: Mechanical (torsional) testing of fractured femora, BB Wistar rats (Example 1). The conditions noted are these: 4 weeks. In kind it is in vivo. From the text:
(§1) A closed mid-diaphyseal fracture was created in the right femur using the following modification of the methods described in Bonnarens, F., and Einhorn, T. A., “Production of a standard closed fracture in laboratory animal bone,” J. Orthop. Res., vol. 2, pages 97-101 (1984). Once a medial, parapatellar incision was made, the patella was dislocated laterally and the interchondylar notch of the distal femur was exposed. An entry hole was made with an 18 gauge needle and the femur was reamed. A 16 gauge teflon cannula was then inserted into the intramedullary canal to stabilize the fracture while a closed midshaft fracture was created unilaterally with the use of a three-point bending, Einhorn fracture machine. Once the fracture was created, the cannula was removed and replaced with a 1.2 mm hollow rod in the Sprague-Dawley rats and a 1 mm Kirschner wire in the BB Wistar rat. […] The animals were allowed to ambulate freely immediately post-fracture.
(§2) Fractured and contralateral femora were resected at 4 weeks and cleaned of soft tissue. Femora were cleaned of soft tissue and the intramedullary rod was removed. Samples were wrapped in saline (0.9% NaCl) soaked gauze and stored at −20° C. Prior to testing, all femora were removed from the freezer and allowed to thaw to room temperature for three to four hours. The proximal and distal ends of the fractured and contralateral femora were embedded in Wood's metal. Torsional testing was conducted using a servohydraulics machine (MTS Systems Corp., Eden Prairie, Minn.) with a 20 Nm reaction torque cell (Interface, Scottsdale, Ariz.) and tested to failure at a rate of 2.0 deg/sec.
(§3) The peak torque (T), torsional rigidity (TR), […] (G) and the maximum shear stress ( ) were determined through standard equations modeling each femur as a hollow ellipse. In order to compare the biomechanical parameters between different groups, the data was normalized by dividing each fractured femur value by its corresponding intact, contralateral femur value.

Test [2] relates to fractured femora. The test is described as follows: Qualitative histology of early fracture callus at day 4. The format is in vivo, BB Wistar rats.
From the text: as §1
The fractured femora were resected at day 4, decalcified, embedded and sectioned using standard histological techniques. To identify cartilage formation, sections were stained with Accustain™ Trichrome Staining kit (Masson, Sigma Diagnostics, St. Louis, Mo.) for histologic observation. The staining procedure consisted of fixing the sections in Accustain™ Bouins solution (Sigma Diagnostics, St. Louis, Mo.) overnight. […]

Test [3] deals with fractured femora. The test is described as follows: Mechanical (torsional) testing of fractured femora, Sprague-Dawley rats. The format is in vivo. As to conditions: 4 weeks.
From the text: as §1, §2, §3

Setting [4] is: fractured femora, versus untreated, FIG. 4.
[5] abbreviates: normalized to intact contralateral femora.
The mark [6] stands for this setting: fractured femora, versus untreated, FIG. 3.

Take ultralente insulin: in the test on fractured femora [1] (setting [4]), the maximum shear stress result is recorded as “significantly increased”, the sheer modulus entry is listed as “trending towards significance”, the torque to failure entry is “significantly increased” and the torsional rigidity result was “trending towards significance”. The “mechanical properties of the fractured femora” value in the test with fractured femora [1] (versus untreated group, FIG. 4) was “improved”. In the test with fractured femora [1] (setting [5]), the percent sheer modulus result is “trending towards significance” and the percent torsional rigidity result is reported as “trending towards significance”. The “osteoid matrix in callus” value in the test on fractured femora [2] (not present in untreated group) is given as “present”. For the same substance, the “chondrocytes in fracture callus (histology)” value with fractured femora [2] (untreated group showed only proliferating chondrocytes, FIG. 2) is “presence of proliferating and hypertrophic chondrocytes”. In addition, in the test with fractured femora [3] (setting [6]), the maximum shear stress entry is “significantly increased”, the sheer modulus entry is “significantly increased”, the torque to failure entry is listed as “significantly increased” and the torsional rigidity entry is “significantly increased”. Further, in the test on fractured femora [3] (versus untreated group, FIG. 3), the “mechanical properties of the fractured femora” value is “improved”. In the test with fractured femora [3] (setting [5]), the “percent maximum shear stress” value is given as “trending towards significance”, the percent sheer modulus entry is on record as “significantly increased”, the “percent torque to failure” value is on record as “trending towards significance” and the percent torsional rigidity entry is on record as “significantly increased”.

(Values after patent US7763582B2 (University of Medicine and Dentistry Of New Jersey, priority 2006, dated 2010).)
